Data as given in the CheMixHub viscosity set.
“And” between values parts separate entries of the source, which are not always exact repeats. Identical values can stand only once.

Assay: xn = mol fraction of the nth substance listed

CS(C)=O + O
Conditions	viscosity
303.15 K, 101 kPa, x1 = 0.01869	0.91 mPa·s
303.15 K, 101 kPa, x1 = 0.0406	1.05 mPa·s
303.15 K, 101 kPa, x1 = 0.05	1.176 mPa·s
303.15 K, 101 kPa, x1 = 0.15	2.183 mPa·s
303.15 K, 101 kPa, x1 = 0.25	2.978 mPa·s
303.15 K, 101 kPa, x1 = 0.35	3.26 mPa·s
303.15 K, 101 kPa, x1 = 0.48	2.884 mPa·s
303.15 K, 101 kPa, x1 = 0.73	2.115 mPa·s
303.15 K, 101.3 kPa, x1 = 0.012	0.88 mPa·s
303.15 K, 101.3 kPa, x2 = 0.1906	2.071 mPa·s
303.15 K, 101.3 kPa, x2 = 0.3252	2.348 mPa·s
303.15 K, 101.3 kPa, x2 = 0.5203	2.958 mPa·s
303.15 K, 101.3 kPa, x2 = 0.6501	3.218 mPa·s
303.15 K, 101.3 kPa, x2 = 0.743	2.942 mPa·s
303.15 K, 101.3 kPa, x2 = 0.8183	2.402 mPa·s
303.15 K, 101.3 kPa, x2 = 0.8668	1.941 mPa·s
303.15 K, 101.3 kPa, x2 = 0.9101	1.536 mPa·s
303.15 K, 101.3 kPa, x2 = 0.9751	0.981 mPa·s
308.15 K, 101 kPa, x1 = 0.05	1.065 mPa·s
308.15 K, 101 kPa, x1 = 0.15	1.942 mPa·s
308.15 K, 101 kPa, x1 = 0.25	2.606 mPa·s
308.15 K, 101 kPa, x1 = 0.35	2.84 mPa·s
308.15 K, 101 kPa, x1 = 0.48	2.512 mPa·s and 2.733 mPa·s
308.15 K, 101 kPa, x1 = 0.73	1.86 mPa·s
308.15 K, 101.3 kPa, x1 = 0.012	0.792 mPa·s
308.15 K, 101.3 kPa, x2 = 0.1906	1.876 mPa·s
308.15 K, 101.3 kPa, x2 = 0.3252	2.109 mPa·s
308.15 K, 101.3 kPa, x2 = 0.5203	2.607 mPa·s
308.15 K, 101.3 kPa, x2 = 0.6501	2.802 mPa·s
308.15 K, 101.3 kPa, x2 = 0.743	2.558 mPa·s
308.15 K, 101.3 kPa, x2 = 0.8183	2.097 mPa·s
308.15 K, 101.3 kPa, x2 = 0.8668	1.708 mPa·s
308.15 K, 101.3 kPa, x2 = 0.9101	1.36 mPa·s
308.15 K, 101.3 kPa, x2 = 0.9455	1.091 mPa·s
308.15 K, 101.3 kPa, x2 = 0.9751	0.879 mPa·s
313.15 K, 101 kPa, x1 = 0.01	0.72 mPa·s
313.15 K, 101 kPa, x1 = 0.01869	0.73 mPa·s
313.15 K, 101 kPa, x1 = 0.025	0.79 mPa·s
313.15 K, 101 kPa, x1 = 0.039	0.87 mPa·s
313.15 K, 101 kPa, x1 = 0.0406	0.85 mPa·s
313.15 K, 101 kPa, x1 = 0.05	0.981 mPa·s
313.15 K, 101 kPa, x1 = 0.055	0.96 mPa·s
313.15 K, 101 kPa, x1 = 0.071	1.07 mPa·s
313.15 K, 101 kPa, x1 = 0.09	1.19 mPa·s
313.15 K, 101 kPa, x1 = 0.11	1.33 mPa·s
313.15 K, 101 kPa, x1 = 0.13	1.5 mPa·s
313.15 K, 101 kPa, x1 = 0.15	1.704 mPa·s
313.15 K, 101 kPa, x1 = 0.16	1.69 mPa·s
313.15 K, 101 kPa, x1 = 0.19	1.89 mPa·s
313.15 K, 101 kPa, x1 = 0.25	2.296 mPa·s
313.15 K, 101 kPa, x1 = 0.26	2.24 mPa·s
313.15 K, 101 kPa, x1 = 0.3	2.39 mPa·s
313.15 K, 101 kPa, x1 = 0.35	2.521 mPa·s
313.15 K, 101 kPa, x1 = 0.41	2.48 mPa·s
313.15 K, 101 kPa, x1 = 0.48	2.22 mPa·s and 2.34 mPa·s
313.15 K, 101 kPa, x1 = 0.57	2.16 mPa·s
313.15 K, 101 kPa, x1 = 0.67	1.95 mPa·s
313.15 K, 101 kPa, x1 = 0.73	1.72 mPa·s
313.15 K, 101 kPa, x1 = 0.81	1.73 mPa·s
313.15 K, 101.3 kPa, x1 = 0.012	0.718 mPa·s
313.15 K, 101.3 kPa, x2 = 0.1906	1.709 mPa·s
313.15 K, 101.3 kPa, x2 = 0.3252	1.905 mPa·s
313.15 K, 101.3 kPa, x2 = 0.5203	2.313 mPa·s
313.15 K, 101.3 kPa, x2 = 0.6501	2.459 mPa·s
313.15 K, 101.3 kPa, x2 = 0.743	2.24 mPa·s
313.15 K, 101.3 kPa, x2 = 0.8183	1.848 mPa·s
313.15 K, 101.3 kPa, x2 = 0.8668	1.513 mPa·s
313.15 K, 101.3 kPa, x2 = 0.9101	1.214 mPa·s
313.15 K, 101.3 kPa, x2 = 0.9455	0.978 mPa·s
313.15 K, 101.3 kPa, x2 = 0.9751	0.794 mPa·s
318.15 K, 101 kPa, x1 = 0.055	0.847 mPa·s
318.15 K, 101 kPa, x1 = 0.48	2.066 mPa·s
318.15 K, 101 kPa, x2 = 0.047	1.423 mPa·s
318.15 K, 101 kPa, x2 = 0.089	1.457 mPa·s
318.15 K, 101 kPa, x2 = 0.186	1.553 mPa·s
318.15 K, 101 kPa, x2 = 0.522	2.083 mPa·s
318.15 K, 101 kPa, x2 = 0.59	2.164 mPa·s
318.15 K, 101.3 kPa, x1 = 0.012	0.654 mPa·s
318.15 K, 101.3 kPa, x2 = 0.5203	2.065 mPa·s
318.15 K, 101.3 kPa, x2 = 0.743	1.976 mPa·s
318.15 K, 101.3 kPa, x2 = 0.8183	1.637 mPa·s
318.15 K, 101.3 kPa, x2 = 0.8668	1.348 mPa·s
318.15 K, 101.3 kPa, x2 = 0.9101	1.09 mPa·s
318.15 K, 101.3 kPa, x2 = 0.9455	0.884 mPa·s
318.15 K, 101.3 kPa, x2 = 0.9751	0.722 mPa·s
323.15 K, 101 kPa, x1 = 0.01869	0.62 mPa·s
323.15 K, 101 kPa, x1 = 0.0406	0.71 mPa·s
323.15 K, 101.3 kPa, x1 = 0.012	0.6 mPa·s
323.15 K, 101.3 kPa, x2 = 0.1906	1.428 mPa·s
323.15 K, 101.3 kPa, x2 = 0.3252	1.577 mPa·s
323.15 K, 101.3 kPa, x2 = 0.5203	1.853 mPa·s
323.15 K, 101.3 kPa, x2 = 0.6501	1.931 mPa·s
323.15 K, 101.3 kPa, x2 = 0.743	1.754 mPa·s
323.15 K, 101.3 kPa, x2 = 0.8183	1.46 mPa·s
323.15 K, 101.3 kPa, x2 = 0.8668	1.211 mPa·s
323.15 K, 101.3 kPa, x2 = 0.9101	0.985 mPa·s
323.15 K, 101.3 kPa, x2 = 0.9455	0.805 mPa·s
323.15 K, 101.3 kPa, x2 = 0.9751	0.66 mPa·s
